Assays:
Test in all cases: scanMax kinase panel (Eurofins)
Type in all cases: binding
[1] = target: T1, DYRK2 (Homo sapiens, UniProt Q92630); conditions: DYRK2, 1 μM; read-out: % control
T1 construct: purchased Eurofins scanMax® kinase panel
Description: (§1) The following assay method was performed to evaluate the inhibitory activities of a compound according to the present invention with respect to various enzymes. […] The compound was applied to the enzyme at a concentration of 1 μM, dissolved in DMSO, and the % control was determined according to Equation 1 below.
(§2) Here, the positive control refers to a compound corresponding to 0% control, and the negative control refers to a compound corresponding to 100% control.

[2] = target: T2, MAP3K15 (Homo sapiens, UniProt Q6ZN16); conditions: MAP3K15, 1 μM; read-out: % control
T2 construct: purchased Eurofins
Description: as §1, §2

[3] = target: T3, ABL1(T315I)-phosphorylated (Homo sapiens, UniProt P00519, T315I); conditions: read-out: % control
T3 construct: purchased Eurofins
Description: as §1, §2

[4] = target: T4, PAK3 (Homo sapiens, UniProt O75914); conditions: PAK3, 1 μM; read-out: % control
T4 construct: purchased Eurofins scanMax kinase panel
Description: as §1, §2

[5] = system: PAK5; conditions: PAK5, 1 μM
Description: as §1, §2

[6] = target: T5, ERK8 (Homo sapiens, UniProt Q8TD08); conditions: ERK8, 1 μM; read-out: % control
T5 construct: purchased Eurofins scanMax® kinase panel
Description: as §1, §2

[7] = target: T6, TRKA (Homo sapiens, UniProt P04629); conditions: read-out: % control
T6 construct: purchased Eurofins scanMax kinase panel
Description: as §1, §2

[8] = target: T7, PIM1 (Homo sapiens, UniProt P11309); conditions: PIM1, 1 μM; read-out: % control
T7 construct: purchased Eurofins scanMax kinase panel
Description: as §1, §2

[9] = target: T8, ERK3 (Homo sapiens, UniProt Q16659); conditions: ERK3, 1 μM; read-out: % control
T8 construct: purchased Eurofins scanMax® kinase panel
Description: as §1, §2

[10] = target: T9, AURKA (Homo sapiens, UniProt O14965); conditions: read-out: % control
T9 construct: purchased Eurofins
Description: as §1, §2

[11] = target: T10, YES1 (Homo sapiens, UniProt P07947); conditions: YES1, 1 μM; read-out: % control
T10 construct: purchased Eurofins scanMax kinase panel
Description: as §1, §2

[12] = target: T11, SRC (Homo sapiens, UniProt P12931); conditions: read-out: % control
T11 construct: purchased Eurofins scanMax kinase panel
Description: as §1, §2

[13] = target: T12, IRAKI (Homo sapiens, UniProt P51617); conditions: read-out: % control
T12 construct: purchased Eurofins
Description: as §1, §2

[14] = target: T13, ABL1(T315I)-nonphosphorylated (Homo sapiens, UniProt P00519, T315I); conditions: read-out: % control
T13 construct: purchased Eurofins
Description: as §1, §2

[15] = target: T14, KIT(D816H) (Homo sapiens, UniProt P10721, D816H); conditions: read-out: % control
T14 construct: purchased Eurofins
Description: as §1, §2

[16] = target: T15, ROCKI (Homo sapiens, UniProt Q13464); conditions: read-out: % control
T15 construct: purchased Eurofins scanMax kinase panel
Description: as §1, §2

[17] = target: T16, KIT(L576P) (Homo sapiens, UniProt P10721, L576P); conditions: read-out: % control
T16 construct: purchased Eurofins
Description: as §1, §2

[18] = target: T17, ABL1(F317L)-phosphorylated (Homo sapiens, UniProt P00519, F317L); conditions: read-out: % control
T17 construct: purchased Eurofins
Description: as §1, §2

T10 sequence (P07947 whole entry): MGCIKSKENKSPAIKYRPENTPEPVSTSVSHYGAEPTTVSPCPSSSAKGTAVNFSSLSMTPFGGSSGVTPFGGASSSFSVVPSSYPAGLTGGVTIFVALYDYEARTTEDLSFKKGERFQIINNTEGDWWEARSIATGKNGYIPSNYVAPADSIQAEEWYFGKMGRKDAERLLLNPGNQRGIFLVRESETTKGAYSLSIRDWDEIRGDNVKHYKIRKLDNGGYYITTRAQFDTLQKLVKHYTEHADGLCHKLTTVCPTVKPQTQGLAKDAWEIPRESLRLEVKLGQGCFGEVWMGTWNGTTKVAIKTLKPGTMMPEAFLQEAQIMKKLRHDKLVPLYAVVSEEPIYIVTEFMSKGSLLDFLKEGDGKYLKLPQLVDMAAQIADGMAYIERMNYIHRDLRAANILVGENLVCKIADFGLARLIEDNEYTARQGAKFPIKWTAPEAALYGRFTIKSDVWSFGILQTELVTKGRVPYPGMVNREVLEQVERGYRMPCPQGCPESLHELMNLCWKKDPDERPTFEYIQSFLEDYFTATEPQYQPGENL
T15 sequence (Q13464 whole entry): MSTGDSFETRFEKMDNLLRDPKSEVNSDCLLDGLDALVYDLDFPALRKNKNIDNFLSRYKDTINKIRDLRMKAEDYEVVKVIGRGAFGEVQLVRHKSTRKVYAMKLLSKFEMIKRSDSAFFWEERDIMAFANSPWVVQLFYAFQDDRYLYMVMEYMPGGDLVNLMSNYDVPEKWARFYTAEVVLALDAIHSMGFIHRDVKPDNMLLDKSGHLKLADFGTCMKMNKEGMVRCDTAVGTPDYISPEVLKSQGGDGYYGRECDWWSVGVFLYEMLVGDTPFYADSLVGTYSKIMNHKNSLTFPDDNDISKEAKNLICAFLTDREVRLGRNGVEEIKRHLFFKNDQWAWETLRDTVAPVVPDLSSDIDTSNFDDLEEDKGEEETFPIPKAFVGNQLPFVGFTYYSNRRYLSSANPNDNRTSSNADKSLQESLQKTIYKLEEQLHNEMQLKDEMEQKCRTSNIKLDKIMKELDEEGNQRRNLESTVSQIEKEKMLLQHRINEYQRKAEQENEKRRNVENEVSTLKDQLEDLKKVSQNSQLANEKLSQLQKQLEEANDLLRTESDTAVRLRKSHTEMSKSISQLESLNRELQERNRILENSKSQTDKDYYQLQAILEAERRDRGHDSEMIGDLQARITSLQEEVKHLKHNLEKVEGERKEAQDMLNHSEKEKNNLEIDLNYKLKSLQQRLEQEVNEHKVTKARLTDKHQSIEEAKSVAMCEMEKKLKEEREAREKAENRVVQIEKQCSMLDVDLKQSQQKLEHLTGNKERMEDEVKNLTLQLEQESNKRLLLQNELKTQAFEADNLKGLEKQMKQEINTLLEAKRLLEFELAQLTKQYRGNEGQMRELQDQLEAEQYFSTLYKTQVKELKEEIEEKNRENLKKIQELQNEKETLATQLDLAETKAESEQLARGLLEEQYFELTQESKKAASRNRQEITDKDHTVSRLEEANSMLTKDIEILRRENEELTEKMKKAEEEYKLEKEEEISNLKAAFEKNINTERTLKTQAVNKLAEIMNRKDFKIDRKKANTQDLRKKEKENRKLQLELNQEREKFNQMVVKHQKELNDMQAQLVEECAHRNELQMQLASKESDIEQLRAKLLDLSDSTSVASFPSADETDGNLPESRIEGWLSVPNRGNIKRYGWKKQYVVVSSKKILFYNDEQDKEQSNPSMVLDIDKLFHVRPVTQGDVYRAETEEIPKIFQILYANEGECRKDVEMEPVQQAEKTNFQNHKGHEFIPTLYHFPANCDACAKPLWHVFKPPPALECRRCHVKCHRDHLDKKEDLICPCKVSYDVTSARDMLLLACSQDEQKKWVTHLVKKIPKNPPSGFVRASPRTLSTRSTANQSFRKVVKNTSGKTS
T14 sequence (P10721 26-976 D816H): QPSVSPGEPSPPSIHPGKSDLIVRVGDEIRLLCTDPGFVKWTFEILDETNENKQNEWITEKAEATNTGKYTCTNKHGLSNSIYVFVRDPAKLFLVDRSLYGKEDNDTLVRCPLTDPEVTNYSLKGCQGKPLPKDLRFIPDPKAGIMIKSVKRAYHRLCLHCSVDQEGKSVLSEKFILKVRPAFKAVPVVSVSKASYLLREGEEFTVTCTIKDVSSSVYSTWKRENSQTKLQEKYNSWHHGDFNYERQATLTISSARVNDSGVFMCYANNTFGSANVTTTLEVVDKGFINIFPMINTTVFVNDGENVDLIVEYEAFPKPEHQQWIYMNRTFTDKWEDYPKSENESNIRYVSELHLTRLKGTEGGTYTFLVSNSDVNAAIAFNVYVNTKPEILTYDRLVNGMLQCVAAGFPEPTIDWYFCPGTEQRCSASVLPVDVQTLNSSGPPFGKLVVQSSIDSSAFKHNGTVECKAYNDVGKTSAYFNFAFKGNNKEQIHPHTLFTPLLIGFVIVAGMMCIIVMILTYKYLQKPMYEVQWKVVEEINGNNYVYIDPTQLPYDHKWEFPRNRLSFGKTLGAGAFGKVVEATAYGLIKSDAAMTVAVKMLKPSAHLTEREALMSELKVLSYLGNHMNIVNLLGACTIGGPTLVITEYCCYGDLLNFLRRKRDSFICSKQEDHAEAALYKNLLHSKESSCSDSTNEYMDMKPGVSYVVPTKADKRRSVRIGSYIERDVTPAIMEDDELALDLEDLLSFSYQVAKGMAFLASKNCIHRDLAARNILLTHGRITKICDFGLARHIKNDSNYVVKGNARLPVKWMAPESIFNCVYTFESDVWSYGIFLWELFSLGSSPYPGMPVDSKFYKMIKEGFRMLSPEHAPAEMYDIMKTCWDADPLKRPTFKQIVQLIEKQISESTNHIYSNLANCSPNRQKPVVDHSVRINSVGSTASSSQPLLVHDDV
T11 sequence (P12931 whole entry): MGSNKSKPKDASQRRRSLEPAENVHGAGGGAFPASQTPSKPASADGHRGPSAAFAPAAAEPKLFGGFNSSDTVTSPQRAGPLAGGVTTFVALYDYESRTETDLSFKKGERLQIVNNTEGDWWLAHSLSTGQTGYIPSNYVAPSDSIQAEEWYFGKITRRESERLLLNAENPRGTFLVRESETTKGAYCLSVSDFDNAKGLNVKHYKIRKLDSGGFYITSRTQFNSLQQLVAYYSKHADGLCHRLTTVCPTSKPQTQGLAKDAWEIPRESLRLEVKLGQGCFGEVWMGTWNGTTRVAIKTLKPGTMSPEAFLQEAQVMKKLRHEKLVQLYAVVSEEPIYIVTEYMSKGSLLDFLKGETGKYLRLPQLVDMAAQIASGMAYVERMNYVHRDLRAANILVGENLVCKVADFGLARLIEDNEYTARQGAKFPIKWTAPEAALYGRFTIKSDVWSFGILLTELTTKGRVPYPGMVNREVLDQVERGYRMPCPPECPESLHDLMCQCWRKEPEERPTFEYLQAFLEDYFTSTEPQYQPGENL
T4 sequence (O75914 whole entry): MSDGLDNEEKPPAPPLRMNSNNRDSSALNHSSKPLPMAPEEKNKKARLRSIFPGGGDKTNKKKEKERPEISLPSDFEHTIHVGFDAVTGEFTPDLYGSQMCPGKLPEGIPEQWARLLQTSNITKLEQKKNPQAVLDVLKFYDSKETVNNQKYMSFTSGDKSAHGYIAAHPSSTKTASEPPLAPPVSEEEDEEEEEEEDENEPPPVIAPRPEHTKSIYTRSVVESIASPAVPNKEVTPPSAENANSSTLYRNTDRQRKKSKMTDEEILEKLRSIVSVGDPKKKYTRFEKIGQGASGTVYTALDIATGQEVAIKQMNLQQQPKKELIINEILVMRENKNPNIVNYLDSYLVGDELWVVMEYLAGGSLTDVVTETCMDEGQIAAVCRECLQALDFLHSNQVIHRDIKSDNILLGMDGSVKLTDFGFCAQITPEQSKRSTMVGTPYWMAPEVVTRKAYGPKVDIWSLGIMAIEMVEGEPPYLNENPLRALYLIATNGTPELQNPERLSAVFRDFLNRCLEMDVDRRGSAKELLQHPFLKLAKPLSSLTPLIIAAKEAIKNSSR
T5 sequence (Q8TD08 whole entry): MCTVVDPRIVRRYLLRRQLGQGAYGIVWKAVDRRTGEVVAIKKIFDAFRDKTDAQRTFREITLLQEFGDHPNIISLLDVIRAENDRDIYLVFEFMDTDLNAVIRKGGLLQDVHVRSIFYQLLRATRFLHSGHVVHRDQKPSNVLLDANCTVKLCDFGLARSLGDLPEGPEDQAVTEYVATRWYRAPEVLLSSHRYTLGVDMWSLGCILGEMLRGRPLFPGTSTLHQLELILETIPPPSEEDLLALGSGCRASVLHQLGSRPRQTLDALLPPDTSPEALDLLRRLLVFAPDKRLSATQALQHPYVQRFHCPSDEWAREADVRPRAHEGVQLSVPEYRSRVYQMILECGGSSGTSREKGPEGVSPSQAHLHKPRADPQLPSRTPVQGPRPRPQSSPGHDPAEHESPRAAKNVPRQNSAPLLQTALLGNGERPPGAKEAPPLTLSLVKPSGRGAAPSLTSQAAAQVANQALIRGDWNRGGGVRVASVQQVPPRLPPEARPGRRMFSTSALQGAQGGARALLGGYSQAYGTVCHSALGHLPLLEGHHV
T16 sequence (P10721 26-976 L576P): as the sequence (P10721 26-976 D816H) above, with L551P, H791D counted along it
T9 sequence (O14965 whole entry): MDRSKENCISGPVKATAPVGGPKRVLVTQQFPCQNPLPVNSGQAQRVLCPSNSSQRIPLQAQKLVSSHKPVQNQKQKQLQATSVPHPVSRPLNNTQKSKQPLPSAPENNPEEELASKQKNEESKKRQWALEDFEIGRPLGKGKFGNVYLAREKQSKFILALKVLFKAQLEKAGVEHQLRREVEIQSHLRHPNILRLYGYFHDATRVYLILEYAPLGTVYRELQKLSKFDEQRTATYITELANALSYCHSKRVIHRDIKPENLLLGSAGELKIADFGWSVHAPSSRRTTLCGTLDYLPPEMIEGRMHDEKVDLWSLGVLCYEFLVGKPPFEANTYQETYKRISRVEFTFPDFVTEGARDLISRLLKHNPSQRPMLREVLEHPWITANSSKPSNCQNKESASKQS

COc1ccc2nc(-c3n[nH]c4ccc(C(=O)N[C@H]5CC[C@H](N)C5)cc34)[nH]c2c1 [Example 32, N-((1S,3S)-3-aminocyclopentyl)-3-(6-methoxy-1H-benzo[d]imidazol-2-yl)-1H-indazole-5-carboxamide]
remaining binding at 1 µM [1]: < 10% | remaining binding at 1 µM [2]: < 10% | remaining binding at 1 µM [3]: < 10% | remaining binding at 1 µM [4]: < 10% | % control [5]: less than 10 % control | remaining binding at 1 µM [6]: < 10% | remaining binding at 1 µM [7]: < 10% | remaining binding at 1 µM [8]: < 10% | remaining binding at 1 µM [9]: < 10% | remaining binding at 1 µM [10]: < 10% | remaining binding at 1 µM [11]: < 10% | remaining binding at 1 µM [12]: < 10% | remaining binding at 1 µM [13]: < 10% | remaining binding at 1 µM [14]: < 10% | remaining binding at 1 µM [15]: < 10% | remaining binding at 1 µM [16]: < 10% | remaining binding at 1 µM [17]: < 10% | remaining binding at 1 µM [18]: < 10%

— patent US20260234129A1, “NOVEL IMIDAZOLE DERIVATIVE AND USE THEREOF” (PELEMED CO., LTD., priority 2023, published 2026)
